Cc1oc(-c2ccc(C(F)(F)F)cc2)cc1CCCOc1cccc(CC(=O)O)c1 [Example 6(84), [3-(3-{2-Methyl-5-[4-(trifluoromethyl)phenyl]-3-furyl}propoxy)phenyl]acetic acid]
melting point: 111 to 113 °C

Cc1oc(-c2ccc(C(F)(F)F)cc2)cc1COc1cccc(-c2cccc(C(=O)O)c2)c1 [Example 6(125), 3′-({2-Methyl-5-[4-(trifluoromethyl)phenyl]-3-furyl}methoxy)-1,1′-biphenyl-3-carboxylic acid]
melting point: 178 to 179 °C

CCCC(SCc1cccc(OCc2cc(-c3ccc(C(F)(F)F)cc3)oc2C)c1)C(=O)O (stereo not shown) [Example 9(4), 2-{[3-({2-Methyl-5-[4-(trifluoromethyl)phenyl]-3-furyl}methoxy)benzyl]thio}pentanoic acid]
melting point: 61 to 62 °C

Cc1oc(-c2ccc(F)cc2)cc1COc1cccc(COCC(=O)O)c1 [Example 6(11), [(3-{[5-(4-Fluorophenyl)-2-methyl-3-furyl]methoxy}benzyl)oxy]acetic acid]
melting point: 109 to 110 °C

CCCCc1oc(-c2ccc(C(F)(F)F)cc2)cc1CCCOc1ccc(CC(=O)O)cc1 [Example 6(16), [4-(3-{2-Butyl-5-[4-(trifluoromethyl)phenyl]-3-furyl}propoxy)phenyl]acetic acid]
melting point: 96 to 97 °C

Cc1oc(-c2ccc(C(F)(F)F)cc2)cc1COc1cccc(COC(C)(C)C(=O)O)c1 [Example 6(70), 2-Methyl-2-{[3-({2-methyl-5-[4-(trifluoromethyl)phenyl]-3-furyl}methoxy)benzyl]oxy}propionic acid]
melting point: 95 to 96 °C

Cc1oc(-c2ccc(C(F)(F)F)cc2)cc1CCc1ncc(CC(=O)O)o1 [Example 13(5), [2-(2-{2-Methyl-5-[4-(trifluoromethyl)phenyl]-3-furyl}ethyl)-1,3-oxazol-5-yl]acetic acid]
melting point: 143 to 144 °C

Cc1oc(-c2ccc(C(F)(F)F)cc2)cc1CCCOc1ccc(OC(C)(C)C(=O)O)cc1 [Example 6(31), 2-Methyl-2-[4-(3-{2-methyl-5-[4-(trifluoromethyl)phenyl]-3-furyl}propoxy)phenoxy]propionic acid]
melting point: 123 to 124 °C

Cc1oc(-c2ccc(C(F)(F)F)cc2)cc1CCc1nc(C(C)C)c(CC(=O)O)o1 [Example 13(7), [4-Isopropyl-2-(2-{2-methyl-5-[4-(trifluoromethyl)phenyl]-3-furyl}ethyl)-1,3-oxazol-5-yl]acetic acid]
melting point: 126 to 128 °C

COc1cccc(-c2cc(CSc3nc(C)c(CC(=O)O)s3)c(C)o2)c1 [Example 6(53), [2-({[5-(3-Methoxyphenyl)-2-methyl-3-furyl]methyl}thio)-4-methyl-1,3-thiazol-5-yl]acetic acid]
melting point: 174 to 176 °C

Cc1cc(-c2ccc(C(F)(F)F)cc2)oc1COc1ccc(OC(C)(C)C(=O)O)cc1 [Example 20(2), 2-Methyl-2-[4-({3-methyl-5-[4-(trifluoromethyl)phenyl]-2-furyl}methoxy)phenoxy]propionic acid]
melting point: 116 to 117 °C

Cc1nc(CCc2cc(-c3ccc(C(F)(F)F)cc3)oc2C)sc1CC(=O)O [Example 13(2), [4-Methyl-2-(2-{2-methyl-5-[4-(trifluoromethyl)phenyl]-3-furyl}ethyl)-1,3-thiazol-5-yl]acetic acid]
melting point: 168 to 169 °C

Cc1oc(-c2ccc(C(F)(F)F)cc2)cc1COc1cccc(CSC(C)(C)C(=O)O)c1 [Example 6(109), 2-Methyl-2-{[3-({2-methyl-5-[4-(trifluoromethyl)phenyl]-3-furyl}methoxy)benzyl]thio}propionic acid]
melting point: 148 to 149 °C

Cc1cc(OCc2cc(-c3ccc(C(F)(F)F)cc3)oc2C)ccc1CC(C)C(=O)O (stereo not shown) [Example 6(76), 2-Methyl-3-[2-methyl-4-({2-methyl-5-[4-(trifluoromethyl)phenyl]-3-furyl}methoxy)phenyl]propionic acid]
melting point: 96 to 97 °C

Cc1oc(-c2ccc(C(F)(F)F)cc2)cc1CCOc1cccc(CC(=O)O)c1 [Example 6(83), [3-(2-{2-Methyl-5-[4-(trifluoromethyl)phenyl]-3-furyl}ethoxy)phenyl]acetic acid]
melting point: 92 to 94 °C

O=C(O)CSCc1cccc(OCc2cc(-c3ccccc3)oc2C(F)(F)F)c1 [Example 5(4), [(3-{[5-Phenyl-2-(trifluoromethyl)-3-furyl]methoxy}benzyl)thio]acetic acid]
melting point: 84 to 85 °C

Cc1nc(CCc2cc(-c3ccc(C(F)(F)F)cc3)oc2C)oc1CC(=O)O [Example 13(6), [4-Methyl-2-(2-{2-methyl-5-[4-(trifluoromethyl)phenyl]-3-furyl}ethyl)-1,3-oxazol-5-yl]acetic acid]
melting point: 120 to 121 °C

CCCc1cc(OCc2cc(-c3ccc(C(F)(F)F)cc3)oc2C)ccc1CCC(=O)O [Example 6(91), 3-[4-({2-Methyl-5-[4-(trifluoromethyl)phenyl]-3-furyl}methoxy)-2-propylphenyl]propionic acid]
melting point: 129 to 131 °C

Cc1ccc(-c2cc(COc3cccc(CSC(C)(C)C(=O)O)c3)c(C)o2)cc1 [Example 6(120), 2-Methyl-2-[(3-{[2-methyl-5-(4-methylphenyl)-3-furyl]methoxy}benzyl)thio]propionic acid]
melting point: 121 to 122 °C

Cc1oc(-c2ccc(Cl)cc2)cc1COc1cccc(CSC(C)(C)C(=O)O)c1 [Example 6(111), 2-[(3-{[5-(4-Chlorophenyl)-2-methyl-3-furyl]methoxy}benzyl)thio]-2-methylpropionic acid]
melting point: 143 to 144 °C

Cc1oc(-c2ccc(C(F)(F)F)cc2)cc1CCCOc1ccc(CC(=O)O)cc1 [Example 6(8), [4-(3-{2-Methyl-5-[4-(trifluoromethyl)phenyl]-3-furyl}propoxy)phenyl]acetic acid]
melting point: 113 to 114 °C

CCc1oc(-c2ccc(C(F)(F)F)cc2)cc1CCCOc1ccc(C(C)(C)C(=O)O)cc1 [Example 6(44), 2-[4-(3-{2-Ethyl-5-[4-(trifluoromethyl)phenyl]-3-furyl}propoxy)phenyl]-2-methylpropionic acid]
melting point: 102 to 103 °C

COc1cc(OCc2cc(-c3ccc(C(F)(F)F)cc3)oc2C)ccc1CC(=O)O [Example 6(10), [2-Methoxy-4-({2-methyl-5-[4-(trifluoromethyl)phenyl]-3-furyl}methoxy)phenyl]acetic acid]
melting point: 168 to 169 °C

Cc1oc(-c2ccc(F)cc2)cc1COc1cccc(CCCC(=O)O)c1 [Example 6(19), 4-(3-{[5-(4-Fluorophenyl)-2-methyl-3-furyl]methoxy}phenyl)butanoic acid]
melting point: 98 to 99 °C

Cc1oc(-c2cccc(F)c2)cc1COc1cccc(CSC(C)(C)C(=O)O)c1 [Example 6(112), 2-[(3-{[5-(3-Fluorophenyl)-2-methyl-3-furyl]methoxy}benzyl)thio]-2-methylpropionic acid]
melting point: 116 to 117 °C

Cc1oc(-c2cccc(C(F)(F)F)c2)cc1COc1ccc(OC(C)(C)C(=O)O)cc1 [Example 6(63), 2-Methyl-2-[4-({2-methyl-5-[3-(trifluoromethyl)phenyl]-3-furyl}methoxy)phenoxy]propionic acid]
melting point: 83 to 84 °C

Cc1oc(-c2ccc(C(F)(F)F)cc2)cc1COc1ccc2sc(CC(=O)O)cc2c1 [Example 6(101), [5-({2-Methyl-5-[4-(trifluoromethyl)phenyl]-3-furyl}methoxy)-1-benzothien-2-yl]acetic acid]
melting point: 153 to 154 °C

Cc1oc(-c2ccc(C(F)(F)F)cc2)cc1COc1ccc(C(C)(C)C(=O)O)cc1 [Example 6(86), 2-Methyl-2-[4-({2-methyl-5-[4-(trifluoromethyl)phenyl]-3-furyl}methoxy)phenyl]propionic acid]
melting point: 105 to 107 °C

CCc1oc(-c2ccc(C(F)(F)F)cc2)cc1CCCOc1cc(CC(=O)O)ccc1OC [Example 6(40), [3-(3-{2-Ethyl-5-[4-(trifluoromethyl)phenyl]-3-furyl}propoxy)-4-methoxyphenyl]acetic acid]
melting point: 137 to 138 °C

O=C(O)CSCc1cccc(NC(=O)c2ccc(-c3ccc(Cl)cc3)o2)c1 [Example 2(3), [(3-{[5-(4-Chlorophenyl)-2-furoyl]amino}benzyl]thio]acetic acid]
melting point: 173 to 174 °C

Cc1oc(-c2ccc(C(F)(F)F)cc2)cc1COc1cccc(OCC(=O)O)c1 [Example 6(87), [3-({2-Methyl-5-[4-(trifluoromethyl)phenyl]-3-furyl}methoxy)phenoxy]acetic acid]
melting point: 118 to 119 °C

Cc1oc(-c2ccc(C(F)(F)F)cc2)cc1COc1ccc(SC(C)(C)C(=O)O)cc1 [Example 6(88), 2-Methyl-2-{[4-({2-methyl-5-[4-(trifluoromethyl)phenyl]-3-furyl}methoxy)phenyl]thio}propionic acid]
melting point: 128 to 129 °C

Cc1oc(-c2ccc(C(F)(F)F)cc2)cc1COc1cc(CSC(C)(C)C(=O)O)ccc1F [Example 6(94), 2-{[4-Fluoro-3-({2-methyl-5-[4-(trifluoromethyl)phenyl]-3-furyl}methoxy)benzyl]thio}-2-methylpropionic acid]
melting point: 120 to 123 °C

Cc1oc(-c2ccc(C(F)(F)F)cc2)cc1COc1ccc(OC(C)(C)C(=O)O)c(Cl)c1 [Example 6(92), 2-[2-Chloro-4-({2-methyl-5-[4-(trifluoromethyl)phenyl]-3-furyl}methoxy)phenoxy]-2-methylpropionic acid]
melting point: 92 to 93 °C

CCCN(C(=O)c1cc(-c2ccc(F)cc2)oc1C)c1cccc(CSCC(=O)O)c1 [Example 1(2), [(3{[5-(4-Fluorophenyl)-2-methyl-3-furoyl](propyl)amino}benzyl)thio]acetic acid]
melting point: 140 to 141 °C

Cc1nc(SCCc2cc(-c3ccc(F)cc3)oc2C)sc1CC(=O)O [Example 6(38), [2-({2-[5-(4-Fluorophenyl)-2-methyl-3-furyl]ethyl}thio)-4-methyl-1,3-thiazol-5-yl]acetic acid]
melting point: 124 to 126 °C

Cc1oc(-c2ccc(C(F)(F)F)cc2)cc1COc1ccc(CCC(=O)O)cc1 [Example 6(123), 3-[4-({2-Methyl-5-[4-(trifluoromethyl)phenyl]-3-furyl}methoxy)phenyl]propionic acid]
melting point: 182 to 183 °C

From patent US7553867B2, “Furan or thiophene derivative and medicinal use thereof” (Takeda Pharmaceutical Company Limited, priority 2002, dated 2009)
